Measurements taken from patent US20240245654A1, “ADJUNCTIVE D-CYCLOSERINE AUGMENTATION OF TRANSCRANIAL MAGNETIC STIMULATION (TMS) THERAPY FOR MAJOR DEPRESSIVE DISORDER” (MCGRX CORP., priority 2021, published 2024).
“Also recorded” adds a separate entry of the source.

Columns and labels:
[1] = system: left primary motor cortex (iTBS synaptic plasticity); assay: Repeated spaced iTBS of motor cortex, MEP and stimulus response curve, placebo-controlled crossover trial in healthy individuals (NCT05081986); format: in vivo, human; conditions: n=20 healthy, vs placebo
Protocol: Methods: This experiment was a pre-registered randomized, double-blind, placebo-controlled crossover trial (NCT05081986). Twenty healthy individuals were randomly assigned to one of two experimental arms of the crossover study: a) Placebo-D-cycloserine and b) D-cycloserine-placebo. In the placebo arm, participants received one oral dose of 100 mg microcrystalline cellulose one hour prior to iTBS. In the D-cycloserine 100 mg arm, participants received one oral dose of 100 mg D-cycloserine one hour before ITBS. Participants attended the laboratory on two occasions to complete both arms of the crossover design. Time of arrival was standardized across visits, and visits were separated by at least seven days.
All TMS pulses were delivered using a neuro-navigated MagPro stimulator (X100 system, MagVenture, Denmark) with a biphasic Cool-B70 figure-eight coil. […] The peak-to-peak amplitude of MEPs were recorded from two surface electromyographic (EMG) electrodes placed on the right first dorsal interosseous muscle (FDI), with the ground electrode placed on the right styloid process. […]
TMS was delivered to the left primary motor cortex to identify the area that, when stimulated, elicited the largest peak-to-peak FDI MEP amplitude (the hotspot). […] The resting motor threshold (RMT) was determined as the lowest stimulator output, which elicited peak-to-peak MEP amplitudes≥0.05 mV in 5/10 trials. […]

[2] = system: motor cortex (iTBS synaptic plasticity); assay: Motor cortex iTBS, MEP and stimulus response curve, placebo-controlled crossover study in Major Depressive Disorder (NCT03937596); format: in vivo, human
[3] = system: treatment resistant major depressive disorder (MDD); assay: 4-week double-blind placebo-controlled RCT of iTBS+DCS in treatment resistant MDD: depression, CGI, anxiety, wellbeing outcomes; format: in vivo, human; conditions: for rate of clinical remission (MADRS≤10): iTBS+placebo 4.2%
Protocol: Methods: In this preregistered (NCT03937596) single site 4-week randomized double-blind placebo-controlled trial, fifty participants with treatment resistant MDD were randomized 1:1 to ITBS+Placebo or iTBS+D-Cycloserine (100 mg). Participants were asked to take the adjunct or placebo at least 60 minutes prior to daily iTBS treatments for the first two weeks, and iTBS continued without an adjunct for weeks three and four. We utilized a MagPro X100 stimulator (MagVenture, Denmark) and a COOL-B70 coil. Targeting of the left DLPFC involved surface anatomy and the Beam F3 method^30. Although anatomical and functional neuroimaging was collected as part of the study protocol, targeting utilizing surface anatomy was chosen to increase generalizability to clinical settings where neuroimaging derived targets are not feasible. This target was registered to either the participant's anatomical MRI or to a template brain for those who could not complete neuroimaging (Visor2, ANT Neuro, the Netherlands). Resting motor threshold (rMT) was determined using electromyographic (EMG) electrodes placed over the first dorsal interosseous muscle, with threshold determined as the stimulus intensity required to elicit a minimum of 5 out of 10 EMG responses of >50 uV.
Patients all received active-iTBS, consisting of a total of 600 pulses per session delivered in twenty trains of triplets at 50 Hz repeated at 5 Hz (2 s on 8 s off) at 80% rMT. Participants received daily treatments Monday through Friday for a total of 20 treatments.
The primary outcome was change in depressive symptoms as measured by the Montgomery Asberg Depression Rating Scale (MADRS) at the conclusion of treatment. Secondary outcomes included clinical response (≥50% improvement in MADRS), clinical remission (MADRS≤10), and clinical global impression (CGI).

[4] = system: MDD-related cognitive impairment; assay: RCT of iTBS+DCS in MDD: cognition (PDQ, THINC-it N-Back); format: in vivo, human; conditions: iTBS+DCS 100 mg vs iTBS+Placebo; listed as DCS
Protocol: The efficacy of 100 mg DCS as an adjunctive strategy to iTBS to reduce MDD-related cognitive impairment and/or improve cognition in MDD was be tested in the randomized controlled trial described in the above Example.
Participants completed the Cognitive Failures Questionnaire (CFQ31) and the Perceived Deficits Questionnaire (PDQ) as well as the THINC-it computerized neurocognitive battery at baseline and after treatment.

[5] = system: neurite density at the iTBS target site; assay: RCT of iTBS+DCS in MDD: NODDI diffusion MRI at iTBS target site; format: in vivo, human; conditions: iTBS+DCS treated participants; not in iTBS+Placebo; listed as DCS
Text: Neurite Density and Dispersion Orientation Index (NODDI)^32 is an MRI tool that provides a proxy measure of neurite morphology and arborization that has been validated against histology in model species^33,34. While more commonly applied to white matter, NODDI has discriminating power in cortical gray matter in both health and disease^35-37. Neurite density metrics reflect the volume within neurites, whereas orientation dispersion metrics capture the tortuosity or complexity of neural processes, both of which are affected in MDD.
In the randomized placebo-controlled trial discussed in the Example above, diffusion magnetic resonance data to quantify Neurite Density and Dispersion Orientation Index (NODDI)^32 were acquired using a 3T General Electric Discovery MR750 scanner at the Seaman Family MR Research Center. This method provides a proxy measure of histopathological features in brain white and gray matter to describe neurite morphology and arborization.

[6] = system: suicidal ideation and suicide risk in MDD; assay: RCT of iTBS+DCS in MDD: suicidal ideation and death-implicit association test; format: in vivo, human; conditions: iTBS+DCS vs iTBS+Placebo, listed as DCS
Text: Participants also completed a computerized neuropsychological test called the death-implicit association test that is associated with suicide attempts, both retrospectively and prospectively.

[7] = system: motor cortex (MEP facilitation after iTBS); conditions: healthy participants, described elsewhere; cited from earlier work
[8] = system: TMS-associated plasticity; conditions: low dose; cited from earlier work
tDCS plasticity = conditions: compared with tDCS alone; cited from earlier work

With `N[C@@H]1CONC1=O` [D-cycloserine] as the compound, how does the “facilitation of MEP peak to peak amplitude after repeated spaced iTBS” value ([1]; 100 mg oral one hour before iTBS, two iTBS separated by an hour) read?
Its value is “not impacted”.

What about the “stimulus response curve change after iTBS” value ([1]; adjunctive 100 mg) of the same compound?
Its value is “significant and sustained facilitation”.

And the “relationship between ΔAUC 90 min and ΔAUC NextDay of the SRC” value ([2]; D-cycloserine groups, placebo groups weak negative relationship)?
Its value is “positively correlated; also recorded: positive relationship”.

What about the “MEP time course following iTBS” value ([2]; MDD participants n=12, 100 mg, vs placebo arm) of the same compound?
The value was “did not impact”.

And the “change in stimulus response curve the day following iTBS” value ([2]; MDD participants, 100 mg, compared with healthy-placebo and MDD-placebo)?
Its value is “normalized”.

And the “OR of clinical response” value ([3]; 2 weeks, iTBS+DCS vs iTBS+placebo, 95% CI: 1.41-21.03)?
The value was 5.45.

And the “rate of clinical remission (MADRS≤10)” value ([3]; 2 weeks)?
Its value is 17.4%.

What about the “rate of clinical response (≥50% improvement in MADRS)” value ([3]; 2 weeks, iTBS+placebo 16.7%) of the same compound?
Its value is 52.2%.

What about the “OR of clinical remission” value ([3]; 4 weeks, iTBS+DCS vs iTBS+placebo, 95% CI: 1.68-129.52) of the same compound?
Its value is 14.78.

What about the “OR of clinical response” value ([3]; 4 weeks, iTBS+DCS vs iTBS+placebo, 95% CI: 1.91-24.77) of the same compound?
The value was 6.88.

What about the “rate of clinical remission (MADRS≤10)” value ([3]; 4 weeks) of the same compound?
The value was 39.1%.

What about the “rate of clinical response (≥50% improvement in MADRS)” value ([3]; 4 weeks, iTBS+placebo 29.2%) of the same compound?
Its value is 73.9%.

What about the “change in depressive symptoms (MADRS scores)” value ([3]; iTBS+DCS 100 mg vs iTBS+Placebo, mITT, 4 weeks, listed as DCS) of the same compound?
Its value is “significant improvement in depressive symptoms; also recorded: greater reductions in depressive symptoms”.

What about the “MADRS mean difference, per treatment analyses” value ([3]; iTBS+DCS vs iTBS+Placebo, 2 weeks, 95% CI: 0.43-7.51) of the same compound?
Its value is 3.97.

What about the “MADRS mean difference, per treatment analyses” value ([3]; iTBS+DCS vs iTBS+Placebo, 4 weeks, 95% CI: 2.66-11.52) of the same compound?
The value was 7.09.

What about the “Hedge's g (MADRS change)” value ([3]; iTBS+DCS vs iTBS+Placebo, 95% CI: 0.34-1.62) of the same compound?
The value was 0.99.

What about the CGI-Improvement scores ([3]; iTBS+DCS vs iTBS+Placebo, at 2 weeks and 4 weeks, listed as DCS) of the same compound?
The CGI-Improvement scores was “greater improvements on the clinical global impression scale; also recorded: greater improvement”.

What about the “mean difference on the MADRS” value ([3]; iTBS+DCS vs iTBS+Placebo, mITT, baseline to 4 weeks, 95% CI: 2.43-9.88, p=0.001) of the same compound?
The value was 6.15.

What about the CGI-severity scale ([3]; iTBS+DCS vs iTBS+Placebo, p=0.0014, listed as DCS) of the same compound?
Its CGI-severity scale is “greater improvements in clinical global impression severity scores”.

And the “visual analog scale for overall wellbeing” value ([3]; iTBS+DCS vs iTBS+Placebo, p=0.018, listed as DCS)?
The value was “greater improvements in overall wellbeing; also recorded: greater improvement”.

And the “self-reported anxiety symptoms (GAD-7)” value ([3]; iTBS+DCS vs iTBS+Placebo, p=0.035, listed as DCS)?
Its value is “greater improvements in anxiety; also recorded: greater improvement”.

And the “objective cognitive function, N-Back task of working memory” value [4]?
The value was “significantly greater improvements; also recorded: significant improvements”.

What about the “subjective cognitive function (Perceived Deficits Questionnaire)” value [4] of the same compound?
The value was “significantly greater improvements; also recorded: significant improvements”.

What about the “neurite density at the target site (NODDI)” value [5] of the same compound?
The value was “increased neurite density; also recorded: Neurite density increases”.

And the suicidal ideation [6]?
The suicidal ideation was “rapid resolution of suicidal ideation; also recorded: greater reductions in suicidal ideation”.

What about the “death-implicit association test performance” value ([6]; persisted when controlling for depressive symptom improvement) of the same compound?
The value was “showed improvement; also recorded: greater reductions in scores”.

What about the “facilitation of MEPs after iTBS” value [7] of the same compound?
Its value is “blunted facilitation of MEPs”.

What about the “short-term facilitation with high-frequency rTMS” value [8] of the same compound?
The value was “increases short-term facilitation”.

What about the “duration of sustained plasticity with transcranial direct current stimulation” value (tDCS plasticity) of the same compound?
Its value is “more than 12 hours”.
